Read-outs that look alike come from different tables or passages of the source.
System: nuclear p27 in LNCaP-S14 cells
Type: cell-based, human
[1] = primary screening, nuclear p27 in LNCaP-S14 cells
[2] = primary screening, S = strong, M = medium, W = weak by Z score

SMILES | hit in primary screen (increased percentage of p27 positive cells) (LNCaP-S14, ~5 to 35 μM, 18 h) | Z score (aver) [1] | Clasf [2] | Clasf | Z score (aver)
C=CCNC1=C2C[C@@H](C)C[C@H](OC)[C@H](O)[C@@H](C)/C=C(\C)[C@H](OC(N)=O)[C@@H](OC)/C=C\C=C(/C)C(=O)NC(=CC1=O)C2=O [17-N-allylamino-17-demethoxygeldanamycin, reference compound] | identified | – | – | – | –
CCC1C=CC=CCC(C)C(O)C(C)(O)C(=O)C(C)C(O)C(C)C(=O)C(C)C(O)C(C)C=CC(=O)OC2C(C)C(CC1)OC1(CCC(C)C(CC(C)O)O1)C2C (centres unmarked) [500B11] | – | 3.61 | M (medium (Z score 3-5)) | – | –
CCCCCCc1ccc(O)cc1O [500E16] | – | 3.71 | M (medium (Z score 3-5)) | – | –
CC(C)COCC(CN(Cc1ccccc1)c1ccccc1)N1CCCC1.Cl (centres unmarked) [500F12] | – | 5.49 | S (strong (Z score > 5)) | – | –
CCN(CC)CCOC(=O)C(c1ccccc1)C1CCCCC1.Cl (centres unmarked) [500G17] | – | 2.62 | W (weak (Z score 2-3) | – | –
O=C(O)C1CCCNC1 (centres unmarked) [500H10] | – | – | – | M (key: S: strong (Z score > 5); M: medium (Z score 3-5); W: weak (Z score 2-3) | 3.12
CCN(CC)CCOC(=O)C1(C2CCCCC2)CCCCC1.Cl [500I04] | – | 5.96 | S (strong (Z score > 5)) | – | –
Cl.N=C(N)NC(=O)c1nc(Cl)c(N)nc1N [500J04] | – | 2.43 | W (weak (Z score 2-3) | – | –
Clc1ccc(CSC(Cn2ccnc2)c2ccc(Cl)cc2Cl)cc1.O=[N+]([O-])O (centres unmarked) [500K22] | – | 3.37 | M (medium (Z score 3-5)) | – | –
NCC(O)c1ccc(O)c(O)c1 (centres unmarked) [500L12] | – | 9.42 | S (strong (Z score > 5)) | – | –
CN(C)c1ccc(O)c2c1CC1CC3C(N(C)C)C(O)=C(C(N)=O)C(=O)C3(O)C(O)=C1C2=O.Cl (centres unmarked) [501G12] | – | 5.15 | S (strong (Z score > 5)) | – | –
Oc1ccc(Cl)cc1Cc1cc(Cl)ccc1O [501G22] | – | 4.38 | M (medium (Z score 3-5)) | – | –
C[n+]1cc2c3c(ccc2c2ccc4cc5c(cc4c21)OCO5)OCO3.O=[N+]([O-])[O-] [501I17] | – | 4.78 | M (medium (Z score 3-5)) | – | –
COC1CC(CC2CCC(C)C(C(C)C(=O)[O-])O2)OC2(OC(C)(C3CCC(C)(C4OC(C5OC(O)(CO)C(C)CC5C)CC4C)O3)CC2C)C1C.[Na+] (centres unmarked) [501K17] | – | 5.95 | S (strong (Z score > 5)) | – | –
CCC1(O)CC(OC2CC(N(C)C)C(OC3CC(O)C(OC4CCC(=O)C(C)O4)C(C)O3)C(C)O2)c2c(cc3c(c2O)C(=O)c2c(O)cccc2C3=O)C1C(=O)OC (centres unmarked) [502B20] | – | 3.61 | M (medium (Z score 3-5)) | – | –
CC(C)CC1C(=O)N2CCCC2C2(O)OC(NC(=O)C3C=C4c5cccc6[nH]c(Br)c(c56)CC4N(C)C3)(C(C)C)C(=O)N12.CS(=O)(=O)O (centres unmarked) [502C19] | – | 2.62 | W (weak (Z score 2-3) | – | –
Cc1cc(C2CCCCC2)n(O)c(=O)c1.NCCO [502D07] | – | 4.86 | M (medium (Z score 3-5)) | – | –
CCCCC(CC)CNC(=N)NC(=N)NCCCCCCNC(=N)NC(=N)NCC(CC)CCCC.Cl (centres unmarked) [502E04] | – | 9.20 | S (strong (Z score > 5)) | – | –
CC=C(C(=CC)c1ccc(O)cc1)c1ccc(O)cc1 [502G13] | – | 2.95 | W (weak (Z score 2-3) | – | –
CCC(C(=O)[O-])C1CCC(C)C(C(C)C(O)C(C)C(=O)C(CC)C2OC3(C=CC(O)C4(CCC(C)(C5CCC(O)(CC)C(C)O5)O4)O3)C(C)CC2C)O1.[Na+] (centres unmarked) [502H07] | – | 6.22 | S (strong (Z score > 5)) | – | –
NC(CO)(CO)CO.O=C(c1ccccc1)c1ccc2n1CCC2C(=O)O (centres unmarked) [502J18] | – | 2.67 | W (weak (Z score 2-3) | – | –
Cc1ccc(-c2cc(C(F)(F)F)nn2-c2ccc(S(N)(=O)=O)cc2)cc1 [502M15] | – | 2.59 | W (weak (Z score 2-3) | – | –
CCCCCc1cc(O)c2c(c1)OC(C)(C)c1ccc(C)cc1-2 [503C05] | – | 5.93 | S (strong (Z score > 5)) | – | –
COC12C(COC(N)=O)C3=C(C(=O)C(C)=C(N)C3=O)N1CC1NC12 (centres unmarked) [503O09] | – | – | – | M (key: S: strong (Z score > 5); M: medium (Z score 3-5); W: weak (Z score 2-3) | 4.55
CS(=O)(=O)c1ccc(F)c(N2C(=O)C=CC2=O)c1 [518H15] | – | 7.59 | S (strong (Z score > 5)) | – | –
CS(=O)(=O)c1ccc(C=CC(=O)Nc2cccc(C(F)(F)F)c2)cc1 [518N13] | – | 5.55 | S (strong (Z score > 5)) | – | –

SMILES | hit in primary screen (increased percentage of p27 positive cells) (LNCaP-S14, ~5 to 35 μM, 18 h) | Z score (aver) [1] | Clasf [2] | Clasf | Z score (aver)
CS(=O)(=O)c1ccc(C=CC(=O)Nc2ccccn2)cc1 [518N17] | – | 4.22 | M (medium (Z score 3-5)) | – | –
CS(=O)(=O)c1ccc2[nH]c(C(=O)N3CCN(c4ncccc4C(F)(F)F)CC3)cc2c1 [519A06] | – | 2.71 | W (weak (Z score 2-3) | – | –
Cl.O=C(OC(CCCN1CCOCC1)c1ccc(F)cc1)C(c1ccccc1)c1ccccc1 (centres unmarked) [519B04] | – | 2.10 | W (weak (Z score 2-3) | – | –
COc1ccccc1CNC1CC(C)(C)n2cccc21 (centres unmarked) [519F12] | – | 2.47 | W (weak (Z score 2-3) | – | –
CCOC(=O)c1cc2cccc(NC(=O)c3ccccc3OC(C)=O)c2[nH]1 [519O17] | – | 9.25 | S (strong (Z score > 5)) | – | –
CCN(C(=O)c1ccc(C(C)(C)C)cc1)c1ccc(Sc2nc(C)cc(C)n2)cc1 [519P04] | – | 5.16 | S (strong (Z score > 5)) | – | –
CC(C)(C)c1cc2cc(NC(=O)C3CC3)ccc2[nH]1 [520D04] | – | 2.80 | W (weak (Z score 2-3) | – | –
CC(C)(C)c1cc2cc(NC(=O)c3cccs3)ccc2[nH]1 [520D16] | – | 3.98 | M (medium (Z score 3-5)) | – | –
CC(=O)N1CCC(N(C(=O)C2CC2)c2ccc3c(c2)CCN3C(C)=O)CC1 [520E02] | – | 2.46 | W (weak (Z score 2-3) | – | –
CCOC(=O)c1cc2cccc(NS(=O)(=O)c3cccc(C(F)(F)F)c3)c2[nH]1 [520F11] | – | 7.25 | S (strong (Z score > 5)) | – | –
CC1CN(C(=O)c2cc(-c3ccc(Cl)cc3)cs2)CC(C)O1 (centres unmarked) [520H18] | – | 6.87 | S (strong (Z score > 5)) | – | –
CC(C)(C)c1cc2cc(NC3CCN(C(=O)c4ccccc4Cl)CC3)ccc2[nH]1 [520N14] | – | 2.16 | W (weak (Z score 2-3) | – | –
Cc1cc(C)nc(N2CCN(C(=O)C(c3ccccc3)c3ccccc3)CC2)n1 [521H09] | – | 2.35 | W (weak (Z score 2-3) | – | –
O=C(Nc1ccccc1)Nc1ccc(SCc2nc(OCC(F)(F)F)cc(OCC(F)(F)F)n2)cc1 [521I09] | – | 3.70 | M (medium (Z score 3-5)) | – | –
CC(C)(C)c1ccc(S(=O)(=O)Nc2ccc3[nH]c(C(C)(C)C)cc3c2)cc1 [521I15] | – | 7.27 | S (strong (Z score > 5)) | – | –
COc1ccc(S(=O)(=O)Nc2ccc3[nH]c(C(C)(C)C)cc3c2)cc1 [521I17] | – | 3.94 | M (medium (Z score 3-5)) | – | –
CC(C)(C)c1cc2cc(NS(=O)(=O)c3ccc(Cl)cc3)ccc2[nH]1 [521I19] | – | 9.14 | S (strong (Z score > 5)) | – | –
CC(C)(C)c1ccc(C(=O)N2CCC(N(C3CC3)S(=O)(=O)c3cccc(C(F)(F)F)c3)CC2)cc1 [521J08] | – | 2.93 | W (weak (Z score 2-3) | – | –
CCCN1CCC(N(C(=O)c2ccc(NC(=O)C(c3ccccc3)c3ccccc3)cc2)C2CC2)CC1 [521L12] | – | 4.02 | M (medium (Z score 3-5)) | – | –
Cc1[nH]cnc1-c1ccc(C(F)(F)F)cc1 [522D05] | – | 3.87 | M (medium (Z score 3-5)) | – | –
COc1ccccc1CN(C(=O)Nc1ccc(F)cc1F)c1ccc2[nH]c(C(C)(C)C)cc2c1 [522J16] | – | 4.05 | M (medium (Z score 3-5)) | – | –
CCC(=O)N(Cc1cccc(Cl)c1)c1ccc2[nH]c(C(C)(C)C)cc2c1 [522J18] | – | 6.59 | S (strong (Z score > 5)) | – | –
COc1ccccc1NC(=O)N(Cc1cccc(Cl)c1)c1ccc2[nH]c(C(C)(C)C)cc2c1 [522L04] | – | 4.02 | M (medium (Z score 3-5)) | – | –
O=C(C(c1ccccc1)c1ccccc1)N(Cc1ccc(Cl)cc1)Cc1ccc2cc[nH]c2c1 [522N04] | – | 2.29 | W (weak (Z score 2-3) | – | –
COc1ccc(S(=O)(=O)N(Cc2ccc(Cl)cc2)Cc2ccc3cc[nH]c3c2)cc1 [522N08] | – | 3.74 | M (medium (Z score 3-5)) | – | –
